Test results as given in patent US8440893B2, “Therapeutic agent for rheumatoid arthritis” (St. Marianna University School of Medicine, priority 2006, dated 2013).

Experiments:
[1] = system: osteoclast precursor cells; experiment: Osteoclast differentiation (TRAP staining of TRAP-positive multinucleated giant cells); type: cell-based; conditions: medium only 78
Description: An osteoclast precursor cell culture kit (Cell Garage Co. Ltd.) was used to observe the effect of C60 on the differentiation of osteoclast precursor cells to mature osteoclasts.
Using the above-mentioned osteoclast precursor cell culture kit, osteoclast precursor cells were cultured on a chamber slide in the presence of osteoclast differentiation-inducing factors. C60 was added to the medium at a final concentration of 0.1, 1.0, or 10.0 μM, and the cells were cultured for seven days. The medium, including various additional factors, was changed to a fresh one every three days. On the seventh day, TRAP-positive multinucleated giant cells, which serve as an index of osteoclast differentiation, were observed by TRAP staining (Cell Garage AK04 Lot: FEM).
The TRAP staining method was carried out as follows. First, after confirming the formation of osteoclasts, the culture solution was removed, and the cells were washed with PBS at 100 μL/well. Next, a fixative solution (kit) was added at 50 μL/well and reacted for five minutes at room temperature. Then, the fixative solution was removed, and the cells were subjected to three washes using 250 μL/well of deionized distilled water (DDW). One vial of chromogenic substrate was dissolved by adding 5 mL of buffer to prepare a color developing solution. The above color developing solution was added at 50 μL/well and then incubated at 37° C. for 20 minutes. After confirming the color development, the color developing solution was removed, and the reaction was stopped using 250 μL/well of DDW. After washing with DDW three times in total, the wells were removed, and the slide was mounted with a water-soluble mounting medium (NUNK 178599 16-well chamber slides were used).
(§1) SOD (final concentration: 10 or 100 μM) or vitamin C (final concentration: 10 or 100 μM) was added to DMEM medium. The level of inflammatory cytokines produced by macrophages and the osteoclast differentiation ability were measured by the methods of Examples 1-3 and 2-2 described above, respectively, and compared to the results obtained with C60 (10 μM) (Table 1).

macrophages = experiment: Inflammatory cytokine production (ELISA), macrophages; type: cell-based, human; conditions: for Concentration of cytokines produced by macrophage, IL-1β: medium only 8.1; for Concentration of cytokines produced by macrophage, TNF-α: medium only 122
Description: After obtaining informed consent, 50 mL of blood was collected from healthy individuals, and 1% heparin-added blood was acquired. Centrifuge tubes in which this blood was layered on top of a lymphocyte separation liquid were centrifuged at 1500 rpm for 30 minutes to isolate lymphocytes and macrophages individually. The cells were cultured using an RPMI medium supplemented with inactivated fetal bovine serum (FBS, manufactured by TRACE) at 10% of the medium volume, and also with 2 mM L-glutamine, 25 mM HEPES, and 100 units/mL of penicillin and streptomycin, in a CO2 incubator set at 5% CO2+95% air (normoxic conditions) at 37° C. under saturated humidity.
Effects of C60 on the production of inflammatory cytokines in each type of cell were analyzed using the enzyme-linked immunosorbent assay method (ELISA).
Each type of cell that was isolated and cultured to subconfluency by the above method was seeded into a 24-well culture plate at 1×10^5 cells/well. After culturing for 12 hours, the cells were washed with PBS, the medium was exchanged to fresh DMEM containing 10% FBS, and tumor necrosis factor TNF-α was added. The concentration of C60 treatment was 0.1, 1.0, or 10.0 μM, and the concentration of TNF-α treatment was 10.0 ng/mL. Each type of cell was cultured with C60 for 24 hours in the presence or absence of TNF-α, and then the culture solution was collected.
The concentrations of inflammatory cytokines TNF-α and interleukin (IL)-1β in the culture supernatant were determined using a ELISA kit, which is a standard technique currently known in the art. The ELISA was performed by the following standard method: the diluted culture supernatant sample was added into a sensitized plate at 100 μl per well, and the plate was left still for one hour at room temperature (primary reaction). After the primary reaction, the wells were sufficiently washed with PBS using a wash bottle four times or more. Horseradish peroxidase (HRP)-labeled goat anti-rabbit IgG (H+L) antibodies that have been diluted 3,000-folds with 0.1% Tween20-PBS were dispensed into the respective wells at 100 μl each, and the plate was left still for one hour at room temperature (secondary reaction). After the secondary reaction, the wells were washed with PBS in the same manner, and then 0.8 mM TMB (Tetramethylbenzidine) solution was added thereto at 100 μl per well, to effect color development at 30° C. for five to 20 minutes (color reaction). 100 μl of 1.5 N H3PO4 was added to each well to stop the color reaction, and the absorbance at 450 nm was measured using a microtiter plate reader. According to the instructions provided by the manufacturer, the measured concentrations were calibrated using a lyophilized control reagent.
as §1

[2] = Antioxidative ability (kit utilizing the redox reaction of copper); type: biochemical
Description: Various concentrations of C60, SOD, and vitamin C solutions were prepared (solvent: DEME medium, SOD (10, and 100 μM), C60 (1, 10, and 100 μM), vitamin C (100 μM)), and the antioxidative ability of each was determined using a kit for measuring antioxidative ability (OXIS Health Product, Oregon, USA) which utilizes the redox reaction of copper.

O=C1O[C@H]([C@@H](O)CO)C(O)=C1O [Vitamin C, vitamin C]
Osteoclast differentiation ([1]; added antioxidant 10 μM): 94 TRAP-positive multinucleated giant cells/well
Osteoclast differentiation ([1]; added antioxidant 100 μM): 82 TRAP-positive multinucleated giant cells/well
Concentration of cytokines produced by macrophage, IL-1β (macrophages; added antioxidant 10 μM): 6.9 ng/ml/1 × 10^5 cells
Concentration of cytokines produced by macrophage, TNF-α (macrophages; added antioxidant 10 μM): 116 ng/ml/1 × 10^5 cells
Concentration of cytokines produced by macrophage, IL-1β (macrophages; added antioxidant 100 μM): 7.5 ng/ml/1 × 10^5 cells
Concentration of cytokines produced by macrophage, TNF-α (macrophages; added antioxidant 100 μM): 115 ng/ml/1 × 10^5 cells

Superoxide dismutase [SOD]
Osteoclast differentiation ([1]; added antioxidant 10 μM): 82 TRAP-positive multinucleated giant cells/well
Osteoclast differentiation ([1]; added antioxidant 100 μM): 75 TRAP-positive multinucleated giant cells/well
Concentration of cytokines produced by macrophage, IL-1β (macrophages; added antioxidant 10 μM): 9.0 ng/ml/1 × 10^5 cells
Concentration of cytokines produced by macrophage, TNF-α (macrophages; added antioxidant 10 μM): 130 ng/ml/1 × 10^5 cells
Concentration of cytokines produced by macrophage, IL-1β (macrophages; added antioxidant 100 μM): 7.8 ng/ml/1 × 10^5 cells
Concentration of cytokines produced by macrophage, TNF-α (macrophages; added antioxidant 100 μM): 106 ng/ml/1 × 10^5 cells
ratio to the antioxidative ability of vitamin C (100 μM) ([2]; substance at 10 μM): approximately two-fold
ratio to the antioxidative ability of vitamin C (100 μM) ([2]; substance at 100 μM): approximately 8 fold
